In US12054497B2, “Substituted heterocyclic fused cyclic compound, preparation method therefor and pharmaceutical use thereof” (GENFLEET THERAPEUTICS (SHANGHAI) INC., priority 2019, dated 2024):
Read-outs that look alike come from different tables or passages of the source.

Experiments:
Type in all cases: cell-based, human
[1] = system: A549 cells with Kras G12S mutation; assay: Cell proliferation inhibition experiment, 3D spheroid, CellTiter-Glo (Test Example 1); details: 5 days
Procedure: (§1) NCI-H358 was a human NSCLC cell line with Kras G12C mutation, which was cultured in a RPMI-1640 medium with 10% fetal bovine serum (FBS). A549 was a human lung adenocarcinoma cell line with Kras G12S mutation, which was cultured in an F-12K medium with 10% FBS. Cells in logarithmic growth phase were detached with trypsin and EDTA, collected and counted, and H358 was regulated to 1.8E4 cells/ml by using an RPMI-1640 medium with 2% FBS, while A549 was regulated to 8.9E3 cells/ml with an F-12K medium containing 2% FBS. 800 (45 μl) H358 cells and 400 (45 μl) A549 cells were seeded to 384-well spheroid plates, respectively, and cultured overnight to establish 3D cell models. 1000× stock solutions of compounds at a concentration gradient of 3.16 were prepared by using DMSO, and diluted 100 times by the medium with 2% FBS into 10× stock solutions of compounds. On the day after cell seeding, 5 μl of 10× stock solution of a compound was added to each well of cell culture plate, with a final concentration being 1× and a DMSO content of 0.1%. DMSO was used as the control, and the medium with 2% FBS was used as blank control group. After 5 days of cell culture with the compound, 25 μl of CellTiter-Glo working solution was added to each well, and mixed uniformly at 400 rpm and incubation for 30 minutes. After standing at room temperature for 30 minutes, 40 μl of mixed solution was transferred to a 384-well plate with white clear bottom. A value of luminescence was then read, and a cell proliferation inhibition rate (IR) (%)=(RLU control-RLU compound)/(RLU control−RLU blank)×100%. The value of IC50 was calculated by fitting a gradiently diluted concentration of the compound and the corresponding cell proliferation inhibition rate using a Prism 6 four-parameter method.

[2] = system: NCI-H358 cells with Kras G12C mutation; assay: as above; details: 5 days
Procedure: as §1

[3] = system: phosphorylated ERK in MIA PaCa2 cells with Kras G12C mutation; assay: p-ERK HTRF assay for cells (Test Example 2); details: MIA PaCa2 cells, 2 hours with compound, read-out: p-ERK IC50
Procedure: MIA PaCa2 was a human pancreatic carcinoma cell line with Kras G12C mutation, which was cultured in a DMEM with 10% FBS and 2.5% Horse serum. Cells in logarithmic growth phase were detached with trypsin and EDTA, collected and counted, and 2.5E4 cells were seeded to a 96-well cell culture plate and cultured overnight. 1000× stock solutions of compounds at a concentration gradient of 3.16 were prepared by using DMSO, and diluted 200 times by the medium into 5× stock solutions of compounds. On the day after cell seeding, 5× stock solution of a compound was added to each well of cell culture plate, with a final concentration being 1× and a DMSO content of 0.1%. DMSO was used as the control. The residual culture was removed after culturing for 2 hours with the compound. To each well, 50 ul of cell lysis buffer was added and mixed uniformly and incubation for 30 minutes. Subsequently, 16 ul of mixed solution was transferred to a 96-well plate with white unclear bottom, and 16 ul of cell lysis buffer was added to the blank control group. After the completion of transfer, 4 ul of p-ERK HTRF antibody mixture was added to each well, and a value of fluorescence intensity was read after incubation for 4 hours. The inhibition rate (IR) of the compound was calculated by the following equation: IR (%)=(RLU control-RLU compound)/(RLU control−RLU blank)×100%. The value of IC50 was calculated by fitting a gradiently diluted concentration of the compound and the corresponding cell proliferation inhibition rate using a Prism 8 four-parameter method.

[4] = system: MIA PaCa-2 cells with Kras G12C mutation; assay: Cell proliferation inhibition experiment, 3D spheroid, CellTiter-Glo (Test Example 3); details: 5 days, read-out: MIA-PaCa2 IC50
Procedure: MIA PaCa-2 was a human pancreatic carcinoma cell line with Kras G12C mutation, which was cultured in a DMEM with 10% FBS and 2.5% Horse serum. A549 was a human lung adenocarcinoma cell line with Kras G12S mutation, which was cultured in an F-12K medium with 10% FBS. Cells in logarithmic growth phase were detached with trypsin and EDTA, collected and counted, and 200 MIA PaCa-2 cells and 400 A549 cells were seeded to 384-well spheroid plates, respectively, and cultured overnight to establish 3D cell models. 1000× stock solutions of compounds at a concentration gradient of 3.16 were prepared by using DMSO, and diluted 100 times by the medium into 10× stock solutions of compounds. On the day after cell seeding, 10× stock solution of a compound was added to each well of cell culture plate, with a final concentration being 1× and a DMSO content of 0.1%. DMSO was used as the control, and the medium was used as the blank. After 5 days of cell culture with the compound, 30 μl of CellTiter-Glo working solution was added to each well, and mixed uniformly and incubation for 30 minutes. After standing at room temperature for 30 minutes, 40 μl of mixed solution was transferred to a 384-well plate with white unclear bottom. A value of luminescence intensity was then read, and a cell proliferation inhibition rate (IR) (%)=(RLU control−RLU compound)/(RLU control−RLU blank)×100%. The value of IC50 was calculated by fitting a gradiently diluted concentration of the compound and the corresponding cell proliferation inhibition rate using an XLFit four-parameter method.

[5] = Homo sapiens, MIA PaCa-2, 120 h

SMILES	IC50 ([1]; Homo sapiens, A549, 120 h) [nM]	IC50 ([2]; Homo sapiens, NCI-H358, 120 h) [nM]	IC50 ([3]; Homo sapiens, MIA PaCa-2, 2 h) [nM]	IC50 [4, 5] [nM]	IC50 [1] [nM]	IC50 [2] [nM]	IC50 [3] [nM]	IC50 [4] [nM]
C=CC(=O)N1CCN2c3c(c(=O)n(-c4c(C)ccnc4C(C)C)c4nc(-c5c(O)cccc5F)c(Cl)cc34)OC[C@H]2C1 [Compound Z6, (4aR)-3-acryloyl-11-chloro-10-(2-fluoro-6-hydroxyphenyl)-8-(2-isopropyl-4-methylpyridin-3-yl)-1,2,3,4,4a,5-hexahydropyrazino[1′,2′:4,5][1,4]oxazino[2,3-c][1,8]naphthyridin-7(8H)-one]	11300	35	313	85	–	–	–	–
[2H]C([2H])([2H])N1C(=O)[C@H]2CN(C(=O)C=C)[C@H](C)CN2c2c1c(=O)n(-c1c(C(C)C)ncnc1C(C)C)c1nc(-c3c(F)cccc3OC)c(F)cc21 [Compound Z44a, (2R,4aR)-3-acryloyl-8-(4,6-diisopropylpyrimidin-5-yl)-11-fluoro-10-(2-fluoro-6-methoxyphenyl)-2-methyl-6-(methyl-d3)-2,3,4,4a,6,8-hexahydro-1H-pyrazino[1′,2′:4,5]pyrazino[2,3-c][1,8]naphthyridin-5,7-dione]	9240	24	170	103	–	–	–	–
C=CC(=O)N1C[C@@H]2COc3c(c4cc(F)c(-c5c(O)cccc5F)nc4n(-c4c(C)ccnc4C(C)C)c3=O)N2C[C@H]1C [Compound Z3, (6aR,9R)-8-acryloyl-3-fluoro-2-(2-fluoro-6-hydroxyphenyl)-13-(2-isopropyl-4-methylpyridin-3-yl)-9-methyl-6,6a,7,8,9,10-hexahydropyrazino[1′,2′:4,5][1,4]oxopyrazino[3,2-c][1,8]naphthyridin-12(13H)-one]	> 10000	16	160	18	–	–	–	–
[2H]C([2H])([2H])N1C(=O)[C@H]2CN(C(=O)C=C)CCN2c2c1c(=O)n(-c1c(C(C)C)ncnc1C(C)C)c1c(F)c(-c3c(O)cccc3F)c(Cl)cc21 (atropisomer, axis not shown; (aR)) [Compound Z39-1, (4aR) -3-acryloyl-11-chloro-8-(4,6-diisopropylpyrimidin-5-yl)-9-fluoro-10-(2-fluoro-6-hydroxyphenyl)-6-(deuteromethyl-d3)-2,3,4,4a,6,8-hexahydro-1H-pyrazino[1′,2′,5]pyrazino[2,3-c]quinolin-5,7-dione]	–	–	11	1	> 30000	0.6	–	–
C=CC(=O)N1C[C@@H]2C(=O)Nc3c(c4cc(F)c(-c5c(O)cccc5F)nc4n(-c4c(C(C)C)ncnc4C(C)C)c3=O)N2C[C@H]1C [Compound Z45, (2R,4aR)-3-acryloyl-8-(4,6-diisopropylpyrimidin-5-yl)-11-fluoro-10-(2-fluoro-6-hydroxyphenyl)-2-methyl-2,3,4,4a,6,8-hexahydro-1H-pyrazino[1′,2′:4,5]pyrazino[2,3-c][1,8]naphthyridin-5,7-dione]	> 30000	13	122	48	–	–	–	–
C=CC(=O)N1C[C@@H]2COc3c(c4cc(F)c(-c5c(F)cccc5OC)nc4n(-c4c(C)ccnc4C(C)C)c3=O)N2C[C@H]1C [Compound Z3a, (2R,4aR)-3-acryloyl-11-fluoro-10-(2-fluoro-6-methoxyphenyl)-8-(2-isopropyl-4-methylpyridin-3-yl)-2-methyl-1,2,3,4,4a,5-hexahydropyrazino[1′,2′:4,5][1,4]oxopyrazino[2,3-c][1,8]naphthyridin-7(8H)-one]	> 10000	17	273	70	–	–	–	–
C=CC(=O)N1C[C@@H]2C(=O)N(C)c3c(c4cc(F)c(-c5c(O)cccc5F)nc4n(-c4c(C(C)C)ncnc4C(C)C)c3=O)N2C[C@H]1C [Compound Z40, (2R,4aR)-3-acryloyl-8-(4,6-diisopropylpyrimidin-5-yl)-11-fluoro-10-(2-fluoro-6-hydroxyphenyl)-2,6-dimethyl-2,3,4,4a,6,8-hexahydro-1H-pyrazino[1′,2′:4,5]pyrazino[2,3-c][1,8]naphthyridin-5,7-dione]	> 30000	11	78	12	–	–	–	–
C=CC(=O)N1CCN2c3c(c(=O)n(-c4c(C)ccnc4C(C)C)c4nc(-c5c(O)cccc5F)c(F)cc34)NC(=O)CC2C1 (centres unmarked) [Compound Z42, 3-acryloyl-12-fluoro-11-(2-fluoro-6-hydroxyphenyl)-9-(2-isopropyl-4-methylpyridin-3-yl)-1,2,3,4,4a,5,7,9-octahydropyrazino[1′,2′:4,5][1,4]diaza[2,3-c][1,8]naphthyridin-6,8-dione]	> 30000	53	566	128	–	–	–	–
C=CC(=O)N1CC2C(=O)N(C)c3c(c4cc(F)c(-c5c(O)cccc5F)nc4n(-c4c(C(F)(F)F)ccnc4C(C)C)c3=O)N2C[C@H]1C (single isomer, unassigned) [Compound Z49-1]	–	–	114	12	9420	9	–	–
C=CC(=O)N1CCN2c3c(c(=O)n(-c4c(C)ccnc4C(C)C)c4nc(-c5c(O)cccc5F)c(F)cc34)N(CC)C(=O)[C@H]2C1 (single isomer, unassigned) [Compound Z30-2]	–	–	–	–	> 30000	47	488	130
C=CC(=O)N1CCN2c3c(c(=O)n(-c4c(C)ccnc4C(C)C)c4nc(-c5c(O)cccc5F)c(F)cc34)N(C)C(=O)CC2C1 (centres unmarked) [Compound Z43, 3-acryloyl-12-fluoro-11-(2-fluoro-6-hydroxyphenyl)-9-(2-isopropyl-4-methylpyridin-3-yl)-7-methyl-1,2,3,4,4a,5,7,9-octahydropyrazino[1′,2′:4,5][1,4]diaza[2,3-c][1,8]naphthyridin-6,8-dione]	29200	49	439	220	–	–	–	–
